Test results: US11667949B2, “Reporter construct and biosensor for interferon second messenger 2-5A” (The Trustees of Princeton University, priority 2018, dated 2023)
Where two headings read alike, the source gives them in different places. Numbered stars: 1 amine (or outer) side, 2 acyl side, 3 side chain; on linkers, the order of the positions; unused ones are H or OH. Bridge positions count the residues as written; N and C are the ends. Square brackets hold non-standard residues; d marks the D form. Peptide text beside a SMILES is read from it. I, II: the chains in the order shown. Actinocin(9to1) = Cc1c2oc3c(C)ccc(C(=O)[*:1])c3nc-2c(C(=O)[*:2])c(N)c1=O; NMeV = CN[C@H](C(=O)O)C(C)C; Sar = CNCC(=O)O

Experiments:
A549 cells [1] = experiment: Nascent protein synthesis by puromycin pulse labeling; assay type: cell-based, human
Procedure: Ribopuromycilation and ^35S labeling to monitor nascent translation: To generate puromycin-tagged nascent peptides, human cells were treated with 0.1-1 μg/mL of poly-IC for times specified on the figures, after which the growth media was supplemented with 10 μg/mL puromycin (Invitrogen). Puromycin pulse lasted for 5 min. Cells were trypsinized and harvested in NuPAGE LDS sample buffer for western blot analyses. Proteins were separated by 10% BisTris PAGE (NuPAGE), and transferred on PVDF membranes (Life Technologies). The membrane was stained with Ponceau to normalize for sample loading, then washed and blocked with 5% non-fat dry milk in TBST buffer. The membranes were probed with 1:1000 mouse anti-puromycin antibody (EMD Millipore) that binds to de novo synthesized proteins, followed by horseradish peroxidase-conjugated goat anti-mouse secondary antibody (1:10,000, Jackson ImmunoResearch). Metabolic labeling with ^35S was conducted using the following procedure. After cell treatment with poly-IC, media was changed to methionine-free RPMI+10% FBS supplemented with 11 μCi EASY TAG™ EXPRESS35S Protein Labeling Mix (Perkin Elmer). Cellular proteins were resolved by 10% BisTris PAGE (NuPAGE) and analyzed by phosphorimaging.

RNase L = biological target: T1, RNase L (Homo sapiens, UniProt Q05823); settings: cited from earlier work
T1 sequence (Q05823 1-741): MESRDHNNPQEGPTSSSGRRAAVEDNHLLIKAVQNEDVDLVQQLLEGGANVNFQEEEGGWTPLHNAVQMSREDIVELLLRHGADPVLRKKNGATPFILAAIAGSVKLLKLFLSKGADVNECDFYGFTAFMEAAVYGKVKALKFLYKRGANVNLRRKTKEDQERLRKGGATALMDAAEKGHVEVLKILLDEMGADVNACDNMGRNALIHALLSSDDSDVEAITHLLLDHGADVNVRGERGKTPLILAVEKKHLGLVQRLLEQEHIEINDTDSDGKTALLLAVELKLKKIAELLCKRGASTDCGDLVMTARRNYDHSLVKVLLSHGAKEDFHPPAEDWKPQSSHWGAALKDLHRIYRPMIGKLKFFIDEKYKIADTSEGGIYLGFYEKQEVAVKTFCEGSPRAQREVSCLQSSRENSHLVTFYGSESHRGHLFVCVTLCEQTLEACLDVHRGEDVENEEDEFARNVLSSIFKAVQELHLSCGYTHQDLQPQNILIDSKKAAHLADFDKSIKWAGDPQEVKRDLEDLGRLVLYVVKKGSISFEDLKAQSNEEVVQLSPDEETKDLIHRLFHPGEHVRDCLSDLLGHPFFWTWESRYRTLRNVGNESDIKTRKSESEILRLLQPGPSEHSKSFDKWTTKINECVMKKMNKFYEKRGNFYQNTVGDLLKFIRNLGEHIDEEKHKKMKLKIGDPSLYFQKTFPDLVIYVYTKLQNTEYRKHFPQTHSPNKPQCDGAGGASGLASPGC

A549 cells [2] = experiment: Live cell 2-5A measurements in A549 cells stably expressing FLAG-V6 biosensor; assay type: cell-based, human; settings: pre-treatment before poly-IC
Procedure: Live cell 2-5A measurements in stable cell lines expressing V6 or V6-Y312A reporters: A549 or HeLa cells stably expressing V6 or V6-Y312A control reporters were seeded at a density of 1·10^4 /well on TC-treated, clear flat bottom white 96-well plates. Before transfection with poly-IC, cells were pre-treated with 100 μM D-luciferin ethyl ester (1% DMSO) (f/c) (Marker Gene Technologies). After one hour of substrate pre-treatment, a poly-IC/lipofectamine complex (1 μg/mL Poly-IC+0.5 μL Lipofectamine 2000 in a final volume of 100 μL) was added to the cells along with a second addition of 100 μM D-luciferin and HEPES (pH 7.5; 20 mM f/c). Dilutions of poly-IC were made by diluting the poly-IC/lipofectamine complexes. Luminescence measurements were taken in repeat-mode using plate reader at time intervals shown on the figures. After three hours, fresh D-luciferin ethyl ester (100 μM) was re-supplied at every hour to ensure excess reporter substrate. Luminescence acquisition time was one minute per well. For IFN-β pre-treatment, a dose of 1000 U/mL (f/c) was used 24 hours before poly-IC treatment.

A549 cells [3] = experiment: Secreted IFN detection by qPCR in conditioned media; assay type: cell-based, human
Procedure: qRT-PCR analysis: Cells were harvested in 350 μL RLT buffer (Qiagen) and RNA was purified according to the RNeasy protocol (Qiagen). cDNA was prepared using oligo-dT and a High Capacity RNA to cDNA kit (Applied Biosystems). qPCR was performed using the Power SYBR green PCR mix in a 96 well format on StepOnePlus qPCR instrument (Life Technologies). qPCR primers used in this work were from Integrated DNA Technologies and are available via the manufacturer if not specifically recited in the Table below.
Secreted IFN detection by qPCR in conditioned media: A549 WT and RNase L knock out (KO) cells in 12-well plates were transfected with 1 μg/mL poly-IC and lipofectamine 2000 for 0.5, 2 or 6 hours. At the end of the time course, cells were washed four times with 1 mL of growth medium (RPMI+10% FBS) to remove residual poly IC. After the washes, fresh 1 mL medium was added and the cells were kept in fresh media for one hour to allow for protein secretion. Treatments of naive cells with conditioned media were done in a separate 12-well plate and using cells seeded 1 day before the analysis. Naïve cell media was replaced with 1 mL of the conditioned medium from above. Cells were grown in the conditioned media for 16 hours and harvested in 300 μL RLT (Qiagen). For pulse-chase experiments in FIG. 9C, 10 μM anisomycin was added 3 hours after poly-IC addition. Anisomycin level was additionally maintained during the last hour allocated for IFN secretion into fresh media.

HeLa cells [4] = settings: poly IC 6 hours, <3 kDa flow-through, V6 reporter in vitro
Procedure: In vitro Luminescence assays: The luminescence reactions contained 20 mM Hepes (pH7.4), 100 mM NaCl, 5 mM MgCl2, 5% (vol/vol) glycerol, 1 mM DTT, 3 mM ATP, 250 uM Coenzyme A hydrate (Sigma Aldrich). After adding specified concentrations of reporter protein and 2-5A (p2-5A3, pA3), D-luciferin, Potassium salt (Gold Biotechnology) was added at a final concentration of 400 uM. The reactions were allowed to stabilize for 2 minutes and immediately after luminescence measurements were taken on a plate reader (Berthold Technologies). Acquisition time for the reaction was set to be 10 seconds.
2-5A extraction: HeLa cells treated for 6 hours with 1 ug/ml polyIC were lysed with RIPA (Thermo Fisher Scientific) buffer along with 0.5 mM PMSF protease inhibitor. The lysate was spun down at 12000 g for 10 minutes at 4° C. The supernatant was passed through a 3 KDa centrifugal filter to collect small nucleic acids. An equivalent amount of RNA from mock or polyIC treated sample was added to the luminescence assay.

HeLa cells [5] = experiment: Reporter assay in live cells transfected with V6 or Y312A V6 constructs; assay type: cell-based, human
Procedure: Reporter assay in live cells: NLS and NES tag sequences cloned in the reporter immediately following the FLAG tag were […] (SEQ ID NO: 4) and […] (SEQ ID NO: 5), respectively. […] These 96 well plates were clear bottom and white for optimum luminescence readings. […] Luminescence acquisition time: 1 minute/well.

HeLa cells [6] = settings: stable monoclonal HeLa reporter cells
Procedure: In an additional experiment, HeLa cells were stably transduced with a lentiviral construct containing the reporter. A monoclonal population of reporter expressing cells was then selected by limiting serial dilution. For reporter assay, these monoclonal cells were seeded at a cell density of 2×10^5 cells per well on 96 well plates. After the cells adhered to the plates (in approximately 6 hours), the cells were pre-treated with 100 uM D-luciferin ethyl ester (1% DMSO) (f/c). After one hour of substrate pre-treatment, poly IC-Lipofectamine complexes were added to the cells along with a second addition of 100 uM D-luciferin substrate. Luminescence measurements were taken on Repeated mode in the plate reader: every 15 minutes for the course of three hours. Luminescence acquisition time: 1 minute/well.

Molecule: 2′-5′-linked oligoadenylates [2-5A]
- attenuation of basal cell-wide translation (A549 cells [1]; 2-5A activated RNase L): more than 1,000 fold
- affinity for latent RNase L (RNase L): sub-nanomolar

Molecule: Cc1c2oc3c(C)ccc(C(=O)N[C@@H]4C(=O)N[C@H](C(C)C)C(=O)N5CCC[C@H]5C(=O)N(C)CC(=O)N(C)[C@@H](C(C)C)C(=O)O[C@@H]4C)c3nc-2c(C(=O)N[C@@H]2C(=O)N[C@H](C(C)C)C(=O)N3CCC[C@H]3C(=O)N(C)CC(=O)N(C)[C@@H](C(C)C)C(=O)O[C@@H]2C)c(N)c1=O [Actinomycin D] (I: T[dV]P[Sar][NMeV] / II: T[dV]P[Sar][NMeV]; ester I:1-I:C, II:1-II:C; linker I:N-II:N via Actinocin(9to1))
- OAS/RNase L activation after pre-treatment with transcription inhibitor (A549 cells [2]): not inhibited

Molecule: COc1ccc(C[C@H]2NC[C@H](O)[C@H]2OC(C)=O)cc1 [anisomycin]
- IFN production (IFN activity in the media) (A549 cells [3]; 10 μM anisomycin added 3 hours after poly-IC, before the IFN response): blocked IFN production
- effect on ISG mRNAs (A549 cells [3]; naïve cells, control experiment): mild stimulatory effect

Molecule: poly-Inosine/poly-Cytidine [poly IC]
- ISG induction by conditioned media (A549 cells [3]; media of poly I:C-treated WT and RNase L−/− cells, time points beyond translational arrest): two orders of magnitude
- stimulation of the reporter by nucleic acids from poly IC treated vs mock treated cells (HeLa cells [4]): roughly 8 fold
- global translation (A549 cells [1]; WT A549 cells, before ISG induction): halted global translation
- 2-5A build-up, fold, poly IC treated vs untreated cells (HeLa cells [5]; 30 minutes): 2.4 fold
- maximum fold change of reporter (HeLa cells [5]; 3 hours post poly IC treatment): 30 fold
- 2-5A build-up, fold change with poly IC vs without poly IC (HeLa cells [6]; 30 mins): 3.7 fold
- maximum fold change of reporter (HeLa cells [6]; 3.5 hours after poly IC treatment): 28 fold
